# Where “and” joins values, the source holds several entries; their conditions need not be identical. Identical values can stand only once. Like-named read-outs stand apart in the source and are kept apart here.
# Legend:
# PANC-1 cells [1] = experiment: CellTiter-Glo luminescent cell viability assay, PANC-1
# PANC-1 cells [2] = experiment: Colony formation (clonogenic) assay; assay type: cell-based, human; settings: 4 µM
# PANC-1 and Fadu cells = experiment: CellTiter-Glo viability, statements covering both cancer cell lines; assay type: cell-based, human; settings: 72 h dose–response
# Description: The effects of the synthesized compounds on cell viability were measured using the CellTiter-Glo® luminescent cell viability assay (Promega, Madison, WI, USA), according to the manufacturer’s instructions. […] After seeding, cells were incubated for a further 48 h before treatment. Cells were treated with the compounds for 72 h. […] After treatment, the luminescence signal was recorded using a microplate reader (BioTek Synergy 2 Multi-Mode Reader, BioTek, Winooski, VT, USA).
# HEK293T CLPP^−/− cells = experiment: CellTiter-Glo cell viability assay, HEK293T CLPP−/− (ClpP dependence); settings: 72 h; for HEK293T CLPP-/- Cell viability (% of controll): individual replicates;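 on all read-outs here: CellTiter-Glo luminescent signal read on a microplate reader once HEK293T CLPP−/− cells had been exposed to compounds for 72 h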
# Description: Primary fibroblast cultures were prepared from human skin biopsies and maintained in DMEM supplemented with 10% FBS, 1% penicillin-streptomycin, and 1% MEM Non-Essential Amino Acids Solution (Thermo Fisher Scientific). […] All cell lines were cultured in a humidified atmosphere at 37 °C and 5% CO2, passaged twice a week, and the experiments were performed on cells between passage 5 and 15. The cell lines were routinely screened for the absence of mycoplasma infection (DAPI staining).
# The effects of the synthesized compounds on cell viability were measured using the CellTiter-Glo® luminescent cell viability assay (Promega, Madison, WI, USA), according to the manufacturer’s instructions. Briefly, cells were seeded onto a flat-bottomed, white 96-well plate (BRANDplates, cat. no.: 781965)), with the following densities: PANC-1: 750 cells/well, Fadu: 2000 cells/well, primary fibroblasts: 2000 cells/well, HEK293T WT: 1000 cells/well, HEK293T CLPP^−/−: 2500 cells/well. After seeding, cells were incubated for a further 48 h before treatment. Cells were treated with the compounds for 72 h. Three concentrations (25.0 µM; 8.3 µM; 2.8 µM) were applied during the initial cell viability screening, while for the determination of dose–response curves, 1.5-fold serially diluted compound concentrations were applied (range: 26 µM–0.7 µM). After treatment, the luminescence signal was recorded using a microplate reader (BioTek Synergy 2 Multi-Mode Reader, BioTek, Winooski, VT, USA).
# Data analysis was performed using GraphPad Prism 9.5.0 software (GraphPad Software, San Diego, CA, USA). […] The dose–response curves were generated by four-parameter nonlinear regression, and the IC50 values were determined as the means ± SEM of the best-fit values of 3 independent measurements. The R^2 values were consistently above 0.93, indicating a strong fit of the model to the experimental data (Supplementary S.89). […] Dunnett’s post hoc test was applied to adjust for multiple comparisons, minimizing the likelihood of false positive results. Assumptions for ANOVA, including normality (assessed via QQ plots) and homogeneity of variance (tested using the Brown–Forsythe test), were verified. The following significance levels were applied: * p < 0.05, ** p < 0.01, *** p < 0.001, **** p < 0.0001. […] The tumor selectivity of the compounds was quantitatively characterized by the selectivity index (SI). This parameter was calculated as the ratio of the average best-fit IC50 value for primary fibroblasts and the best-fit IC50 value for the corresponding tumor cells (PANC-1 or Fadu).
# Fadu cells = experiment: CellTiter-Glo luminescent cell viability assay, Fadu
# [3] = 26 μM, 72 h, dose–response, individual replicates
smiles,measurement,setting,value
CNCC#Cc1cccc(CN2C(=O)C3=C(CCN(Cc4ccc(-n5cc(-c6ccccc6)nn5)cc4)C3)N3CCN=C23)c1 [38b],PANC-1 Cell viability (% of controll),PANC-1 cells [1]; [3],0 % of controll
same,viability at 2.8 µM,"PANC-1 cells [1]; Homo sapiens, PANC-1, 72 h, read-out: Cell Viability (% of Control) 2.8 µM, PANC-1, 2.8 µM, 72 h, second-set screening, mean ± SD, n = 2",6 ± 6%
same,viability at 8.3 µM,"PANC-1 cells [1]; Homo sapiens, PANC-1, 72 h, read-out: Cell Viability (% of Control) 8.3 µM, PANC-1, 8.3 µM, 72 h, second-set screening, mean ± SD, n = 2",0%
same,viability at 25 µM,"PANC-1 cells [1]; Homo sapiens, PANC-1, 72 h, read-out: Cell Viability (% of Control) 25 µM, PANC-1, 25 µM, 72 h, second-set screening, mean ± SD, n = 2",0%
same,IC50,"PANC-1 cells [1]; Homo sapiens, PANC-1, 72 h, read-out: IC50 Value ± SEM PANC-1, 72 h treatment, best-fit values, n = 3",2500 ± 230 nM
same,viability at 0.7 µM,"PANC-1 cells [1]; Homo sapiens, PANC-1, 72 h, read-out: PANC-1 Cell viability (% of controll), 0.7 μM, 72 h, dose–response, individual replicates",110%
same,viability at 1 µM,"PANC-1 cells [1]; Homo sapiens, PANC-1, 72 h, read-out: PANC-1 Cell viability (% of controll), 1 μM, 72 h, dose–response, individual replicates",110%
same,viability at 1.5 µM,"PANC-1 cells [1]; Homo sapiens, PANC-1, 72 h, read-out: PANC-1 Cell viability (% of controll), 1.5 μM, 72 h, dose–response, individual replicates",109%
same,viability at 2.3 µM,"PANC-1 cells [1]; Homo sapiens, PANC-1, 72 h, read-out: PANC-1 Cell viability (% of controll), 2.3 μM, 72 h, dose–response, individual replicates",81%
same,viability at 5.1 µM,"PANC-1 cells [1]; Homo sapiens, PANC-1, 72 h, read-out: PANC-1 Cell viability (% of controll), 5.1 μM, 72 h, dose–response, individual replicates",0%
same,viability at 7.7 µM,"PANC-1 cells [1]; Homo sapiens, PANC-1, 72 h, read-out: PANC-1 Cell viability (% of controll), 7.7 μM, 72 h, dose–response, individual replicates",0%
same,viability at 17.3 µM,"PANC-1 cells [1]; Homo sapiens, PANC-1, 72 h, read-out: PANC-1 Cell viability (% of controll), 17.3 μM, 72 h, dose–response, individual replicates",0%
same,viability at 26 µM,"PANC-1 cells [1]; Homo sapiens, PANC-1, 72 h, read-out: PANC-1 Cell viability (% of controll), 26 μM, 72 h, dose–response, individual replicates",0%
same,IC50,"PANC-1 cells [1]; Homo sapiens, PANC-1, read-out: PANC-1 IC50 values, Mean, mean of independently fitted replicate IC50 values (Supplement S.6)",2450 nM
same,Selectivity Index (SI) Fibroblast/PANC-1,PANC-1 cells [1]; ratio of mean best-fit IC50 for primary fibroblasts and best-fit IC50 for PANC-1,1.8
same,viable cells / colonies after shorter exposure,PANC-1 cells [2]; 24 h treatment followed by 5 days post-incubation,left only traces of viable cells
same,viable cells / colonies after longer exposure,PANC-1 cells [2]; 72 h treatment followed by 3 days post-incubation,no viable cells were discernible
same,concentration range of almost complete eradication of PANC-1 and Fadu cells with little to no cytotoxic effect toward fibroblasts,PANC-1 and Fadu cells,3000 to 4000 nM
same,HEK293T CLPP-/- Cell viability (% of controll),"HEK293T CLPP^−/− cells; 0.4 μM, dose–response, listed as CZT457, 0.4 µM",116 % of controll and 114 % of controll and 119 % of controll
same,HEK293T CLPP-/- Cell viability (% of controll),"HEK293T CLPP^−/− cells; 0.6 μM, dose–response, listed as CZT457, 0.6 µM",112 % of controll (2×) and 110 % of controll
same,HEK293T CLPP-/- Cell viability (% of controll),"HEK293T CLPP^−/− cells; 1.0 μM, dose–response, listed as CZT457, 1 µM",112 % of controll and 111 % of controll and 115 % of controll
same,HEK293T CLPP-/- Cell viability (% of controll),"HEK293T CLPP^−/− cells; 1.6 μM, dose–response, listed as CZT457, 1.6 µM",107 % of controll and 101 % of controll and 103 % of controll
same,HEK293T CLPP-/- Cell viability (% of controll),"HEK293T CLPP^−/− cells; 2.5 μM, dose–response, listed as CZT457, 2.5 µM",25 % of controll and 33 % of controll and 32 % of controll and 13 % of controll
same,HEK293T CLPP-/- Cell viability (% of controll),"HEK293T CLPP^−/− cells; 4.0 μM, dose–response, listed as CZT457, 4 µM",1 % of controll and 0 % of controll
same,HEK293T CLPP-/- Cell viability (% of controll),"HEK293T CLPP^−/− cells; 6.4 μM, dose–response",0 % of controll
same,HEK293T CLPP-/- Cell viability (% of controll),"HEK293T CLPP^−/− cells; 16.25 μM, dose–response",0 % of controll
same,HEK293T CLPP-/- Cell viability (% of controll),"HEK293T CLPP^−/− cells; 26 μM, dose–response",0 % of controll
same,IC50,"HEK293T CLPP^−/− cells; Homo sapiens, HEK-293T, read-out: IC50 (µM) HEK293T CLPP^−/−",2.1 ± 0.03 µM
same,effect on the viability of HEK293T CLPP^−/− cells,"HEK293T CLPP^−/− cells; dose–response, compared with HEK293T WT",maintained
same,Fadu Cell viability (% of controll),"Fadu cells; 0.7 μM, 72 h, dose–response, individual replicates",108 % of controll and 109 % of controll
same,Fadu Cell viability (% of controll),"Fadu cells; 1 μM, 72 h, dose–response, individual replicates",109 % of controll and 105 % of controll
same,Fadu Cell viability (% of controll),"Fadu cells; 1.5 μM, 72 h, dose–response, individual replicates",105 % of controll and 106 % of controll
same,Fadu Cell viability (% of controll),"Fadu cells; 2.3 μM, 72 h, dose–response, individual replicates",99 % of controll and 98 % of controll
same,Fadu Cell viability (% of controll),"Fadu cells; 3.4 μM, 72 h, dose–response, individual replicates",70 % of controll and 37 % of controll and 29 % of controll
same,Fadu Cell viability (% of controll),"Fadu cells; 5.1 μM, 72 h, dose–response, individual replicates",10 % of controll and 1 % of controll and 2 % of controll
same,Fadu Cell viability (% of controll),"Fadu cells; 7.7 μM, 72 h, dose–response, individual replicates",0 % of controll
same,Fadu Cell viability (% of controll),"Fadu cells; 17.3 μM, 72 h, dose–response, individual replicates",0 % of controll
same,Fadu Cell viability (% of controll),Fadu cells; [3],0 % of controll
same,viability at 2.8 µM,"Fadu cells; Homo sapiens, FaDu, 72 h, read-out: Cell Viability (% of Control) 2.8 µM, Fadu, 2.8 µM, 72 h, second-set screening, mean ± SD, n = 2",91 ± 17%
same,viability at 8.3 µM,"Fadu cells; Homo sapiens, FaDu, 72 h, read-out: Cell Viability (% of Control) 8.3 µM, Fadu, 8.3 µM, 72 h, second-set screening, mean ± SD, n = 2",0%
same,viability at 25 µM,"Fadu cells; Homo sapiens, FaDu, 72 h, read-out: Cell Viability (% of Control) 25 µM, Fadu, 25 µM, 72 h, second-set screening, mean ± SD, n = 2",0%
same,viability at 0.7 µM,"Fadu cells; Homo sapiens, FaDu, 72 h, read-out: Fadu Cell viability (% of controll), 0.7 μM, 72 h, dose–response, individual replicates",103%
same,viability at 1 µM,"Fadu cells; Homo sapiens, FaDu, 72 h, read-out: Fadu Cell viability (% of controll), 1 μM, 72 h, dose–response, individual replicates",113%
same,viability at 1.5 µM,"Fadu cells; Homo sapiens, FaDu, 72 h, read-out: Fadu Cell viability (% of controll), 1.5 μM, 72 h, dose–response, individual replicates",104%
same,viability at 2.3 µM,"Fadu cells; Homo sapiens, FaDu, 72 h, read-out: Fadu Cell viability (% of controll), 2.3 μM, 72 h, dose–response, individual replicates",104%
same,viability at 7.7 µM,"Fadu cells; Homo sapiens, FaDu, 72 h, read-out: Fadu Cell viability (% of controll), 7.7 μM, 72 h, dose–response, individual replicates",0%
same,viability at 17.3 µM,"Fadu cells; Homo sapiens, FaDu, 72 h, read-out: Fadu Cell viability (% of controll), 17.3 μM, 72 h, dose–response, individual replicates",0%
same,viability at 26 µM,"Fadu cells; Homo sapiens, FaDu, 72 h, read-out: Fadu Cell viability (% of controll), 26 μM, 72 h, dose–response, individual replicates",0%
same,IC50,"Fadu cells; Homo sapiens, FaDu, 72 h, read-out: IC50 Value ± SEM Fadu, 72 h treatment, best-fit values, n = 3",3300 ± 70 nM
same,Selectivity Index (SI) Fibroblast/Fadu,Fadu cells; ratio of mean best-fit IC50 for primary fibroblasts and best-fit IC50 for Fadu,1.3

# Reference: PMC11642016 (International Journal of Molecular Sciences, 2024)
